Measurements from patent publication US5587392A, “Azolyl methyl phenyl derivatives having aromatase inhibitory activity” (Mochida Pharmaceutical Co., Ltd., priority 1994, dated 1996).
Values joined by “and” are separate entries in the source; they are usually repeats but may differ in a detail not shown here. Equal entries are not always repeated.

How the values were obtained:
[1] = system: cleavage enzymes of cholesterol side chains; details: related art; cited from earlier work
plasma aldosterone = test: Lowering effect on plasma aldosterone; type: in vivo, male SD rats
[2] = system: biosynthesis of aldosterone; details: related art; cited from earlier work
[3] = system: plasma 17α-hydroxyprogesterone; test: Elevating effect on plasma 17α-hydroxyprogesterone; type: in vivo, male SD rats

SMILES | decrease of glucocorticoids and mineral corticoids [1] | potency to inhibit cleavage enzymes of cholesterol side chains [1] | minimal effective dose (plasma aldosterone; Rattus norvegicus, po, read-out: dose decreasing plasma aldosterone level) [mg/kg] | Decrease in plasma aldosterone (plasma aldosterone; rat, in vivo) | change of plasma levels of aldosterone (plasma aldosterone; rat, in vivo) | inhibition of the biosynthesis of aldosterone [2] | minimal effective dose ([3]; Rattus norvegicus, po, read-out: dose elevating plasma 17α-hydroxyprogesterone level) [mg/kg] | Elevation in plasma 17α-hydroxyprogesterone ([3]; rat, in vivo) | change of plasma levels of 17α-hydroxyprogesterone ([3]; rat, in vivo)
CCC1(c2ccc(N)cc2)CCC(=O)NC1=O (stereo not drawn) [AG, Aminoglutethimide] | causes therefore the decrease of glucocorticoids and mineral corticoids | higher potency to inhibit cleavage enzymes of cholesterol side chains |  |  |  |  |  |  | 
N#Cc1ccc(C2CCCc3cncn32)cc1 (stereo not drawn) [CGS 16949A, 5-(p-cyanophenyl)-5,6,7,8-tetrahydroimidazo[1,5-a]pyridine] |  |  | ≥ 0.1 | 37% and 55% | did change | inhibits the biosynthesis of aldosterone | ≥ 0.1 | 169% and 313% | did change
